Measurements: US11389539B2, “Hyaluronic acid derivatives into which cationic and hydrophobic groups are introduced” (CHUGAI SEIYAKU KABUSHIKI KAISHA, priority 2016, dated 2022)

Columns and labels:
ApoB mRNA = assay: Suppression of gene expression by HA derivatives containing nucleic acid (transfection of HepG2 cells, quantitative real-time PCR); assay type: cell-based, Human; settings: siRNA 200 nM, 24 hours
Description: ApoB (sense strand: [NT] ID No. 1, number of nucleotides: 21), antisense strand: 3'-[…] ID No. 2, number of nucleotides: 23)) was used as siRNA. First, an aqueous solution of 0.5 mg/mL siRNA and 0.1-M Hepes buffer were mixed, to which 6 mg/mL aqueous solutions of the HA derivatives obtained in Examples 2 and 4 were added to an N/P ratio of 10 or 20 and was pipetted to prepare agents containing nucleic acid (the final concentration of siRNA was 800 nM and the final concentration of Hepes was 10 mM). In order to assess suppression effects of the HA derivatives containing nucleic acid obtained in Example 8-1 on gene expression, a transfection experiment was performed to HepG2 cells. The sucrose solutions containing the HA derivatives containing nucleic acid were added to a 96-well plate. HepG2 cells suspended in DMEM supplemented with 10% FBS was added to 1×10^4 cells/well and cultured for 24 hours. The final concentration of siRNA in transfection was 200 nM. Total RNA was extracted and purified according to the manual using a QIAGEN RNeasy 96 kit. By using the RNA-to-Ct 1 Step kit manufactured by Thermo Fisher Scientific, quantitative real-time PCR was performed on the target ApoB mRNA and GAPDH mRNA as the housekeeping gene using the following primers according to the instruction manual. For the quantitative real-time PCR, Rotor-Gene Q manufactured by QIAGEN was used. […]

[1] = Assessment of intraocular migration of eye drops (fluorescent-labeled HA derivative, confocal microscope); assay type: in vivo; settings: mice, 3 μL eye drops to both eyes, 1 hour, frozen sections
Description: The 10k-HA-Chol-17%/ArgNH2-10%/EtOH-67%/FL synthesized in Example 2-26 was dissolved in 10% sucrose solution to a concentration of 50 mg/mL, and 3 μL of the resulting solution was applied to both eyes of mice. Both eyeballs were taken out after 1 hour and frozen sections were prepared. […] On the other hand, carboxyfluorescein was dissolved in 10% sucrose solution to a concentration of 0.0568 mg/mL, 3 μL of the resulting solution was applied to both eyes of mice, and an observation was performed as in the case of the 10k-HA-Chol-17%/ArgNH2-10%/EtOH-67%/FL. As a result, fluorescence from carboxyfluorescein was not observed in any tissues of the eyes including the cornea, conjunctiva and ciliary body.

siRNA alone: ApoB siRNA, sense strand SEQ ID No. 1 (21 nucleotides), antisense strand SEQ ID No. 2 (23 nucleotides) (sense GUCAUCACACUGAAUACCAAU; antisense AUUGGUAUUCAGUGUGAUGACAC; listed as RNA, chemistry not given here)
expression of ApoB (ApoB mRNA): does not have an effect of suppressing gene expression

carboxyfluorescein
distribution in the conjunctiva and the ciliary body by fluorescence detection [1]: not observed | distribution in the cornea by fluorescence detection [1]: not observed
